Experimental data taken from patent US20170105981A1, “METHODS FOR STABILIZING HYPOXIA INDUCIBLE FACTOR-2 ALPHA AS A METHOD FOR TREATING CANCER” (The Ohio State Innovation Foundation, priority 2011, published 2017).

Columns and labels:
A2780/CP tumor cells = test: A2780/CP ovarian tumor xenograft model; type: in vivo, female athymic nude mice
Description: The compound tested, {[5-(3-fluorophenyl)-3-hydroxypyridine-2-carbonyl]-amino} acetic acid, was formulated in a 0.25% hydroxypropyl methyl cellulose/0.1% Tween™ 80 solution in reverse osmosis deionized water. The test compound was reconstituted at concentrations of 1.8 and 3.6 mg/ml as instructed on each vial to deliver doses of 18 and 36 mg/kg, respectively, at a […] dose volume. Solutions of the test compound were prepared weekly and stored at 4° C. protected from light. All formulations were removed from the refrigerator and stirred for 30 minutes before dosing, and continuously stirred during dosing.
The vehicle control was prepared by making a solution of 0.25% hydroxypropyl methyl cellulose/0.1% Tween™ 80 solution in reverse osmosis deionized water.
A2780/CP ovarian tumor cell line was received from Sigma-Aldrich (St. Louis, Mo.). Cultures were maintained in RPMI 1640 (Hyclone, Logan, Utah), supplemented with 10% fetal bovine serum, and housed in a 5% CO2 atmosphere. The cultures were expanded in tissue culture flasks at a 1:3 split ratio until a sufficient yield of cells was achieved.
Female athymic nude mice were supplied by Harlan (Indianapolis, Ind.). Mice were received at four to five weeks of age, 12-15 grams in weight, and were acclimated for seven days prior to handling. The mice were housed in microisolator cages and maintained under specific pathogen-free conditions. The mice were fed Tekland Global Diet™ 2920x irradiated laboratory animal diet (Harlan, Indianapolis, Ind.) and autoclaved water was freely available.
Sixty female mice were inoculated subcutaneously in the right flank with 0.1 ml of a 50% RPMI/50% Matrigel™ (BD Biosciences, Bedford, Mass.) mixture containing a suspension of A2780/CP tumor cells (approximately 1.0×10^7 cells/mouse).
Three days following inoculation, tumors were measured using calipers and tumor weight was calculated using the animal study management software. Thirty mice with tumor sizes of 80.4-170.6 mg were randomized into three groups often mice (Groups 1-3) by random equilibration. Body weights were recorded when the mice were randomized and were taken twice per week thereafter in conjunction with tumor measurements.
Animals were treated until the study endpoint. Group I received only vehicle (control). Group II was given doses of 1.8 mg/mL {[5-(3-fluorophenyl)-3-hydroxypyridine-2-carbonyl]-amino} acetic acid while Group III was given doses of 3.6 mg/mL {[5-(3-fluorophenyl)-3-hydroxypyridine-2-carbonyl]-amino} acetic acid. All doses were given via oral administration (PO). The administered volume of each dose was approximately 1 mL/100 g body weight of animal.
Tumor mass (mg) was determined using the formula:
where “a” is the largest diameter and “b” is the smallest diameter. Measurements were made using calipers. The mean tumor size when study began was 100-125 mg. On day one of the study, animals were randomly assigned to the three groups described above.
Tumors were collected from Groups 1-3 of the main study when individual tumors reached a tumor weight of ≧2000 mg by using the procedure above. Tumor size measurements and animal body weight were taken twice weekly.

[1] = test system: endothelial cell marker CD31; test: Tumor vascularity by CD31 immunohistochemistry in melanoma-bearing mice; type: in vivo; settings: mice treated with the control antibody; p=0.022; FIG. 14B
[2] = test system: A375 human melanoma cells; test: A375 human melanoma tumors in SCID mice; type: in vivo; settings: at the time of sacrifice; stabilizer 17 mg/kg, docetaxel 1 mg/kg, IP 3 times per week
Description: 6-8-week-old C57BL/6 mice or SCID mice were injected with 1×10^5 B16F10 murine melanoma cells or 1×10^6 A375 human melanoma cells, respectively, subcutaneously on the left flank. […] Tumor diameters were measured 3 times per week with calipers, and tumor volumes will be calculated as follows: Tumor volume=0.5×[(large diameter)×(small diameter)^2].
In the study, immunocompromised SCID mice were inoculated with A375 human melanoma tumors subcutaneously. Starting when the tumors became palpable (7 days after injection), mice were treated with either the cytotoxic chemotherapy docetaxel or with the disclosed HIF-2α stabilizer. The disclosed HIF-2α stabilizer was given at a dose of 17 mg/kg, and the docetaxel was given at 1 mg/kg. Both drugs were given IP 3 times per week. […] At the time of sacrifice, the tumors in the mice that received only the disclosed HIF-2α stabilizer were approximately 78% of the size of the control tumors, the tumors of the mice that received only chemotherapy were approximately 50% of the size of the control tumors, and the tumors of the mice that received both drugs were approximately 16% of the size of the control tumors.

**Q.** With `O=C(O)CNC(=O)c1ncc(-c2cccc(F)c2)cc1O` [disclosed HIF-2α stabilizer, {[5-(3-Fluorophenyl)-3-hydroxypyridine-2-carbonyl]amino} acetic acid] as the compound, how does the “Mean Tumor Mass” value (A2780/CP tumor cells; 18 mg/kg QD PO, study day 1) read?
**A.** The value was 119.6 mg.

**Q.** What about the “Median Tumor Mass” value (A2780/CP tumor cells; 18 mg/kg QD PO, study day 1) of the same compound?
**A.** Its value is 121.3 mg.

**Q.** And the “Mean Tumor Mass” value (A2780/CP tumor cells; 18 mg/kg QD PO, study day 4)?
**A.** Its value is 188.2 mg.

**Q.** And the “Median Tumor Mass” value (A2780/CP tumor cells; 18 mg/kg QD PO, study day 4)?
**A.** Its value is 191.0 mg.

**Q.** And the “No. Surviving Animals” value (A2780/CP tumor cells; 18 mg/kg QD PO, study day 4)?
**A.** The value was 10.

**Q.** What about the Wgt % change (A2780/CP tumor cells; 18 mg/kg QD PO, study day 4) of the same compound?
**A.** Its Wgt % change is −0.31%.

**Q.** What about the “Mean Tumor Mass” value (A2780/CP tumor cells; 18 mg/kg QD PO, study day 8) of the same compound?
**A.** The value was 326.9 mg.

**Q.** What about the “Median Tumor Mass” value (A2780/CP tumor cells; 18 mg/kg QD PO, study day 8) of the same compound?
**A.** Its value is 243.8 mg.

**Q.** And the “No. Surviving Animals” value (A2780/CP tumor cells; 18 mg/kg QD PO, study day 8)?
**A.** Its value is 10.

**Q.** What about the Wgt % change (A2780/CP tumor cells; 18 mg/kg QD PO, study day 8) of the same compound?
**A.** Its Wgt % change is 4.40%.

**Q.** What about the “Mean Tumor Mass” value (A2780/CP tumor cells; 18 mg/kg QD PO, study day 11) of the same compound?
**A.** The value was 682.8 mg.

**Q.** What about the “Median Tumor Mass” value (A2780/CP tumor cells; 18 mg/kg QD PO, study day 11) of the same compound?
**A.** Its value is 528.0 mg.

**Q.** And the “No. Surviving Animals” value (A2780/CP tumor cells; 18 mg/kg QD PO, study day 11)?
**A.** The value was 10.

**Q.** What about the Wgt % change (A2780/CP tumor cells; 18 mg/kg QD PO, study day 11) of the same compound?
**A.** Its Wgt % change is 6.02%.

**Q.** And the “Mean Tumor Mass” value (A2780/CP tumor cells; 18 mg/kg QD PO, study day 16)?
**A.** Its value is 2508.0 mg.

**Q.** What about the “Median Tumor Mass” value (A2780/CP tumor cells; 18 mg/kg QD PO, study day 16) of the same compound?
**A.** The value was 1826.2 mg.

**Q.** And the “No. Surviving Animals” value (A2780/CP tumor cells; 18 mg/kg QD PO, study day 16)?
**A.** The value was 10.

**Q.** And the Wgt % change (A2780/CP tumor cells; 18 mg/kg QD PO, study day 16)?
**A.** Its Wgt % change is 16.40%.

**Q.** What about the “Mean Tumor Mass” value (A2780/CP tumor cells; 18 mg/kg QD PO, study day 19) of the same compound?
**A.** The value was 2647.4 mg.

**Q.** What about the “Median Tumor Mass” value (A2780/CP tumor cells; 18 mg/kg QD PO, study day 19) of the same compound?
**A.** The value was 3030.1 mg.

**Q.** And the “No. Surviving Animals” value (A2780/CP tumor cells; 18 mg/kg QD PO, study day 19)?
**A.** Its value is 6.

**Q.** What about the Wgt % change (A2780/CP tumor cells; 18 mg/kg QD PO, study day 19) of the same compound?
**A.** The Wgt % change was 16.82%.

**Q.** And the “Mean Tumor Mass” value (A2780/CP tumor cells; 18 mg/kg QD PO, study day 22)?
**A.** The value was 1761.6 mg.

**Q.** What about the “Median Tumor Mass” value (A2780/CP tumor cells; 18 mg/kg QD PO, study day 22) of the same compound?
**A.** Its value is 1761.6 mg.

**Q.** What about the “No. Surviving Animals” value (A2780/CP tumor cells; 18 mg/kg QD PO, study day 22) of the same compound?
**A.** Its value is 1.

**Q.** What about the Wgt % change (A2780/CP tumor cells; 18 mg/kg QD PO, study day 22) of the same compound?
**A.** Its Wgt % change is 19.43%.

**Q.** And the “Mean Tumor Mass” value (A2780/CP tumor cells; 18 mg/kg QD PO, study day 25)?
**A.** The value was 2838.3 mg.

**Q.** What about the “Median Tumor Mass” value (A2780/CP tumor cells; 18 mg/kg QD PO, study day 25) of the same compound?
**A.** Its value is 2838.3 mg.

**Q.** What about the “No. Surviving Animals” value (A2780/CP tumor cells; 18 mg/kg QD PO, study day 25) of the same compound?
**A.** The value was 1.

**Q.** What about the Wgt % change (A2780/CP tumor cells; 18 mg/kg QD PO, study day 25) of the same compound?
**A.** The Wgt % change was 19.43%.

**Q.** And the “Mean Tumor Mass” value (A2780/CP tumor cells; 36 mg/kg QD PO, study day 1)?
**A.** Its value is 120.3 mg.

**Q.** What about the “Median Tumor Mass” value (A2780/CP tumor cells; 36 mg/kg QD PO, study day 1) of the same compound?
**A.** Its value is 123.3 mg.

**Q.** And the “Mean Tumor Mass” value (A2780/CP tumor cells; 36 mg/kg QD PO, study day 4)?
**A.** Its value is 186.4 mg.

**Q.** And the “Median Tumor Mass” value (A2780/CP tumor cells; 36 mg/kg QD PO, study day 4)?
**A.** Its value is 182.8 mg.

**Q.** What about the “No. Surviving Animals” value (A2780/CP tumor cells; 36 mg/kg QD PO, study day 4) of the same compound?
**A.** Its value is 10.

**Q.** What about the Wgt % change (A2780/CP tumor cells; 36 mg/kg QD PO, study day 4) of the same compound?
**A.** The Wgt % change was −0.41%.

**Q.** And the “Mean Tumor Mass” value (A2780/CP tumor cells; 36 mg/kg QD PO, study day 8)?
**A.** The value was 312.8 mg.

**Q.** And the “Median Tumor Mass” value (A2780/CP tumor cells; 36 mg/kg QD PO, study day 8)?
**A.** The value was 323.4 mg.

**Q.** What about the “No. Surviving Animals” value (A2780/CP tumor cells; 36 mg/kg QD PO, study day 8) of the same compound?
**A.** The value was 10.

**Q.** And the Wgt % change (A2780/CP tumor cells; 36 mg/kg QD PO, study day 8)?
**A.** Its Wgt % change is 4.04%.

**Q.** What about the “Mean Tumor Mass” value (A2780/CP tumor cells; 36 mg/kg QD PO, study day 11) of the same compound?
**A.** The value was 708.1 mg.

**Q.** What about the “Median Tumor Mass” value (A2780/CP tumor cells; 36 mg/kg QD PO, study day 11) of the same compound?
**A.** The value was 830.4 mg.

**Q.** What about the “No. Surviving Animals” value (A2780/CP tumor cells; 36 mg/kg QD PO, study day 11) of the same compound?
**A.** Its value is 10.

**Q.** And the Wgt % change (A2780/CP tumor cells; 36 mg/kg QD PO, study day 11)?
**A.** Its Wgt % change is 5.48%.

**Q.** What about the “Mean Tumor Mass” value (A2780/CP tumor cells; 36 mg/kg QD PO, study day 16) of the same compound?
**A.** Its value is 2354.5 mg.

**Q.** What about the “Median Tumor Mass” value (A2780/CP tumor cells; 36 mg/kg QD PO, study day 16) of the same compound?
**A.** The value was 2441.8 mg.

**Q.** What about the “No. Surviving Animals” value (A2780/CP tumor cells; 36 mg/kg QD PO, study day 16) of the same compound?
**A.** Its value is 10.

**Q.** And the Wgt % change (A2780/CP tumor cells; 36 mg/kg QD PO, study day 16)?
**A.** The Wgt % change was 15.86%.

**Q.** And the “Mean Tumor Mass” value (A2780/CP tumor cells; 36 mg/kg QD PO, study day 19)?
**A.** Its value is 1858.8 mg.

**Q.** What about the “Median Tumor Mass” value (A2780/CP tumor cells; 36 mg/kg QD PO, study day 19) of the same compound?
**A.** Its value is 1568.0 mg.

**Q.** What about the “No. Surviving Animals” value (A2780/CP tumor cells; 36 mg/kg QD PO, study day 19) of the same compound?
**A.** Its value is 4.

**Q.** And the Wgt % change (A2780/CP tumor cells; 36 mg/kg QD PO, study day 19)?
**A.** The Wgt % change was 12.79%.

**Q.** And the “Mean Tumor Mass” value (A2780/CP tumor cells; 36 mg/kg QD PO, study day 22)?
**A.** Its value is 2456.9 mg.

**Q.** And the “Median Tumor Mass” value (A2780/CP tumor cells; 36 mg/kg QD PO, study day 22)?
**A.** Its value is 2384.6 mg.

**Q.** And the “No. Surviving Animals” value (A2780/CP tumor cells; 36 mg/kg QD PO, study day 22)?
**A.** Its value is 3.

**Q.** And the Wgt % change (A2780/CP tumor cells; 36 mg/kg QD PO, study day 22)?
**A.** Its Wgt % change is 8.50%.

**Q.** And the “rate of tumor mass growth” value (A2780/CP tumor cells; 18 and 36 mg/kg QD PO vs control group, FIGS. 7 to 9, Table I)?
**A.** Its value is “significantly reduced”.

**Q.** And the “tumor vascularity (CD31)” value [1]?
**A.** The value was “decreased tumor vascularity”.

**Q.** What about the “tumor size as % of the size of the control tumors” value [2] of the same compound?
**A.** The value was “approximately 78%”.
